According to patent US20250352517A1, “THERAPEUTIC OR PROPHYLACTIC AGENT FOR COVID19 WHICH COMPRISES SELENONEINE” (National University Corporation Chiba University, priority 2021, published 2025):

What was measured:
Type in all cases: biochemical
papain = molecular target: T1, papain (Carica papaya, UniProt P00784); experiment: Inhibitory activity against papain activity (Bz-Arg-MCA fluorescent substrate); settings: 10 μg/ml papain, 15 min preincubation, 37° C., pH 7.4, 10 μM Bz-Arg-MCA; from FIG. 5
T1 construct: purchased Sigma-Aldrich Japan
Procedure: Thereafter, 10 μM Bz-Arg-MCA was added to the reaction solution, and changes in the fluorescence intensity caused by cleavage of Bz-Arg-MCA were observed over time using a fluorometer.
Thereafter, 10 μM Bz-Arg-MCA was added to the reaction solution, and changes in the fluorescence intensity caused by cleavage of Bz-Arg-MCA were measured using a fluorometer, to investigate the inhibitory activity.

M^pro of SARS-COV2 [1] = molecular target: T2, M^pro of SARS-COV2 (Severe acute respiratory syndrome coronavirus 2, UniProt P0DTD1); experiment: Inhibitory activity against M^pro of SARS-COV2 at 1 μM test compound, Example 5; settings: 2 μg/ml M^pro, measured 1 minute after addition, FIG. 10
Procedure: The M^pro was introduced into a plasmid having GST and a histidine tag (FIG. 6), and the resulting plasmid was used for transformation of the E. coli BL21 (DE3) strain. The E. coli BL21 (DE3) strain was cultured at 37° C. to allow expression of M^pro protein. The cell bodies were recovered, and M^pro protein was purified using a binding agent for the histidine tag. The GST and the histidine tag were removed by autodigestion of M^pro and human rhinovirus 3C protease (HRV), and undigested M^pro and HRV were removed using a binding agent for the histidine tag, to obtain a purified sample of M^pro protein. […]
After dissolving 2 μg/ml M^pro and 1 μM test compound in 50 mM Tris-HCl (pH 7.4) kept at 37° C., preincubation was carried out for 5 minutes. Thereafter, 10 μM Ac-Abu-Tle-Leu-Gln-MCA was added to the reaction solution, and the fluorescence intensity resulting from cleavage of Ac-Abu-Tle-Leu-Gln-MCA was measured using a fluorometer, to measure the inhibitory activity (FIG. 10). […] When the fluorescence intensity observed in the case without addition of a test compound was taken as 100, the fluorescence intensity measured 1 minute after the addition of the test compound was about 20% in the case of selenoneine.

M^pro of SARS-COV2 [2] = molecular target: T2, M^pro of SARS-COV2; experiment: Inhibitory activity against M^pro of SARS-COV2 (Ac-Abu-Tle-Leu-Gln-MCA fluorescent substrate), Example 4; settings: 2 μg/ml M^pro, 5 min preincubation
Procedure: Thereafter, 10 μM Ac-Abu-Tle-Leu-Gln-MCA was added to the reaction solution, and changes in the fluorescence intensity caused by cleavage of Ac-Abu-Tle-Leu-Gln-MCA were measured using a fluorometer, to investigate the inhibitory activity (FIG. 8). In order to provide a control, changes in the fluorescence intensity were measured under the same conditions except that no inhibitory compound was added.
Ac-Abu-Tle-Leu-Gln-MCA is degraded by M^pro, to produce a fluorescent substance as follows. The production of the fluorescent substance is suppressed by the action of an M^pro-inhibiting compound.
Thereafter, 10 μM Ac-Abu-Tle-Leu-Gln-MCA was added to the reaction solution, and changes in the fluorescence intensity caused by cleavage of Ac-Abu-Tle-Leu-Gln-MCA were measured using a fluorometer to measure the fluorescence intensity, to determine an inhibition curve (FIG. 8).

T1 sequence (P00784 134-345): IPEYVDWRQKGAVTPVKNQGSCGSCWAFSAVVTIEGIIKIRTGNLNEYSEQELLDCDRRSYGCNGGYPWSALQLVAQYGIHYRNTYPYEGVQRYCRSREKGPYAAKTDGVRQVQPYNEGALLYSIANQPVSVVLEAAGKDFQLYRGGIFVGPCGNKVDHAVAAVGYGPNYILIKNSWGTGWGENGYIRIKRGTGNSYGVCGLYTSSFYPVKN

Structure (SMILES) | IC50 (papain) | fluorescence intensity (case without test compound taken as 100) (M^pro of SARS-COV2 [1]) | IC50 (M^pro of SARS-COV2 [2]; 37° C., pH 7.4, 10 μM Ac-Abu-Tle-Leu-Gln-MCA, read-out: IC50 value calculated from the regression curve) | changes in the fluorescence intensity compared with control without inhibitory compound (M^pro of SARS-COV2 [2]; 5 μM compound, FIG. 8)
O=c1c2ccccc2[se]n1-c1ccccc1 [Ebselen, ebselen, reference compound] | 5000 nM | – | – | –
C[N+](C)(C)C(Cc1cnc([SeH])[nH]1)C(=O)O [Selenoneine, 2-selenyl-Nα,Nα,Nα-trimethyl-L-histidine] | 250 nM | about 20% | 540 nM | lower than that in the case where no inhibitory compound was added
